Tests used:
[1] = biological target: recombinant human Adenosine A2A (FAST-002C) receptor (Homo sapiens, UniProt P29274); assay: cAMP HTRF assay, Adenosine A2A receptor, antagonist mode; type: cell-based
[2] = biological target: T1, recombinant human Adenosine A3 (FAST-004C) receptor (Homo sapiens, UniProt P0DMS8); assay: cAMP HTRF assay, Adenosine A3 receptor, antagonist mode; type: cell-based
T1 sequence (P0DMS8 1-318): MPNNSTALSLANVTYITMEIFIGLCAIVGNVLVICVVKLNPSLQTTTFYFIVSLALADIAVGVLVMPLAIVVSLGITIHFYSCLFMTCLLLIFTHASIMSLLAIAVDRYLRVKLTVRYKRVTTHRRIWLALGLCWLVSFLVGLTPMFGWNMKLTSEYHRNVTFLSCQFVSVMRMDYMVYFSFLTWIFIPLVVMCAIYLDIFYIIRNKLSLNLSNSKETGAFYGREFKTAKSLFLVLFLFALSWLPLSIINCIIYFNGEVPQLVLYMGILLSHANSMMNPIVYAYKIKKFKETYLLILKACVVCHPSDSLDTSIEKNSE

[3] = test system: MDA-MB-231 breast cancer cell lines; assay: cytotoxicity, control cells vs cells overexpressing CYP1A1; type: cell-based
Source text: The dependence of each compound's cytotoxic effects upon CYP1A1 was also examined, via screening of MDA-MB-231 breast cancer cell lines for cytotoxic response. The CYP1A1-dependence of the cytotoxic response of to each tested compound was specifically determined by comparing the cytotoxicity of each compound administered to control cells with that of the compound administered to corresponding cells that overexpressed CYP1A1. […]

[4] = test system: Twelve different breast cancer cell lines; assay: adenosine receptor antagonists and agonists dosed on twelve breast cancer cell lines; type: cell-based; conditions: 32 adenosine receptor antagonists/agonists compared; FIG. 6B
[5] = test system: MDA-MB-468 breast cancer cells; assay: Western immunoblot of treated cells over 24 hours; type: cell-based; conditions: FIG. 18
Method: Adherent cells were washed once with cold 1×PBS (Corning #01018002) and lysed with RIPA buffer (Sigma #R0278) supplemented by protease and phosphatase inhibitors (Sigma). Protein content was quantified using the DC Protein Assay (BioRad #5000111). Samples were reduced with (loading buffer) and boiled at 95° C. before being resolved by SDS gel electrophoresis on 4-20% Tris/glycine gels (Invitrogen). Proteins were transferred using the IBlot2 (Thermo #IB21001) onto the iBlot™ 2 nitrocellulose Transfer Stacks (Thermo #IB23001). The membranes were then blocked in Odyssey Blocking Buffer (Li-COR #927-40000) for one hour, and then probed overnight with primary antibodies diluted in blocking buffer. The following day, membranes were washed 3×5 mins with 1×TBST and then probed with LiCOR Infrared secondary antibodies for 1 hour at room temperature. Membranes were washed an additional 3×5 mins in 1×TBST and then imaged using the LiCOR Imager. […]

[6] = test system: MDA-MB-468 and ZR51 breast cancer and JHH7 liver cancer cell lines
[7] = test system: ZR-75-1 and MDA-MB-468 cells harboring an AGR2 knockout; conditions: CRISPR-Cas9 AGR2 knockout; FIGS. 10A-10D
[8] = test system: MDA-MB-468 and ZR-75-1 cell lines; conditions: AHR sg3 / AHR sg4 knockout vs GFP sg1 or parental Cas9; FIGS. 13A and 13B
[9] = biological target: T2, recombinant human Adenosine A1 (FAST-001C) receptor (Homo sapiens, UniProt P30542); assay: cAMP HTRF assay, Adenosine A1 receptor, antagonist mode; design: inhibition: dose or concentration left out as unconfirmed
T2 sequence (P30542 1-326): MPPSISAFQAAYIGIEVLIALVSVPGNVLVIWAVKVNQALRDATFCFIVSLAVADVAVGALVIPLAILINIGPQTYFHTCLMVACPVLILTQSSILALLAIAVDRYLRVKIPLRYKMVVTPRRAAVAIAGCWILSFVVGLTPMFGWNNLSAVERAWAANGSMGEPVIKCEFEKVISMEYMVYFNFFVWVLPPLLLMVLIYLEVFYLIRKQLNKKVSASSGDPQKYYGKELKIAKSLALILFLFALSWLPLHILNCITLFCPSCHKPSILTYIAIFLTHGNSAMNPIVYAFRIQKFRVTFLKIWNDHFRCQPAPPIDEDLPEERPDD

[10] = biological target: T3, recombinant human Adenosine A2B (FAST-003C) receptor (Homo sapiens, UniProt P29275); assay: cAMP HTRF assay, Adenosine A2B receptor, antagonist mode; design: inhibition: dose or concentration left out as unconfirmed
T3 sequence (P29275 1-332): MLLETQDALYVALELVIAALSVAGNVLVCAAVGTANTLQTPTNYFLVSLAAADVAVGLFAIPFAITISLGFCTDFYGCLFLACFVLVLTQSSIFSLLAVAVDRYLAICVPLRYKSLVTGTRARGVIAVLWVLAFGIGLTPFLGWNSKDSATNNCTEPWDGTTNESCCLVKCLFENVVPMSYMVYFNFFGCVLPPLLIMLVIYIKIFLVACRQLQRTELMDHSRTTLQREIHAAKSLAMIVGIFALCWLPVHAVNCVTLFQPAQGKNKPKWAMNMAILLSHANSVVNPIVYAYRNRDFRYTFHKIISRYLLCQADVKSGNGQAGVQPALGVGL

[11] = HEK293, read-out: % Inhibition Average at maximal concentration
[12] = antagonist mode dose-response fit
[13] = CHO-K1, read-out: % Inhibition Average at maximal concentration

Chain of recombinant human Adenosine A2A (FAST-002C) receptor (P29274 whole entry): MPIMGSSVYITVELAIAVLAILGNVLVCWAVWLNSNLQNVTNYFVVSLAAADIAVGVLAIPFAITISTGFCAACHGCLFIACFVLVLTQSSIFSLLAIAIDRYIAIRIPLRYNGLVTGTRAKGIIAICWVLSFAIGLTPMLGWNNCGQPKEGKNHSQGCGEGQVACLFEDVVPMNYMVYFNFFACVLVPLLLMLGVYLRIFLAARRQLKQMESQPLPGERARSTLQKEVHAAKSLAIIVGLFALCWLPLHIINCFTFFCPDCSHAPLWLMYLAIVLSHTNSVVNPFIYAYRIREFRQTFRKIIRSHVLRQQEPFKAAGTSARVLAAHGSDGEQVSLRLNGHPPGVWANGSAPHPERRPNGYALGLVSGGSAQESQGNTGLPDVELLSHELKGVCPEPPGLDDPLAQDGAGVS

Compound: Nc1nc2ccc(Cl)cc2c2nc(-c3ccco3)nn12 [CGS-15943, reference compound]
- inhibition at 10 µM [1, 11]: 125%
- Hill Coefficient [1, 12]: 1.25
- inhibition at 10 µM [2, 13]: 68.9%
- Hill Coefficient [2, 12]: 1.66
- IC50 ([2]; antagonist mode, CHO-K1, reference agonist IB-MECA): 2.09 µM
- CYP1A1-dependence of the cytotoxic response [3]: CYP1A1-dependent cytotoxic
- cytotoxicity to breast cancer cell lines [4]: cytotoxic
- CYP1A1 expression ([5]; 24 hour time course): induced CYP1A1 expression
- FOXA1 levels ([5]; 24 hour time course): maintenance of FOXA1 levels
- DNA double stranded breaks (pH2A.X) and PARP cleavage ([5]; within 24 hours): induced DNA double stranded breaks and PARP cleavage
- AHR-dependence of the cytotoxic response [6]: dependence upon AHR
- rescue of cytotoxicity by AGR2 knockout [7]: not rescued by AGR2 knockout
- dependence of cytotoxic activity on AHR [8]: required intact AHR expression
- inhibition [9, 13]: 106%
- Hill Coefficient [9, 12]: 0.92
- inhibition [10, 11]: 120%
- Hill Coefficient [10, 12]: 1.75

— patent US12358918B2, “Aryl hydrocarbon receptor (AHR) activator compounds as cancer therapeutics” (THE BROAD INSTITUTE, INC., priority 2018, dated 2025)
